Assay results from article PMC9953660, “Using ΔK280 TauRD Folding Reporter Cells to Screen TRKB Agonists as Alzheimer’s Disease Treatment Strategy” (Biomolecules, 2023).

What was measured:
[1] = biological target: T1, TRKB extracellular domain (TRKB-ECD) (Homo sapiens, UniProt Q16620); assay: Tryptophan fluorescence quenching assay; details: Pichia pastoris-expressed TRKB-ECD, 0–1000 nM, excitation 295 nm, emission 330 nm, room temperature; read-out: KD (TRKB-ECD binding affinity)
T1 construct: TRKB-ECD (marked in red, C^32-E^429, XP_016870240); His (C); made in house; host or cells: Pichia pastoris
Experimental: The interaction between the N-terminal extracellular domain of TRKB (TRKB-ECD) and 7,8-DHF (as positive control; [35]), ZN-015, VB-030 or VB-037 was evaluated with tryptophan fluorescence titration. TRKB-ECD-His protein was expressed in the Pichia expression system (Invitrogen) and purified as stated. Intrinsic tryptophan fluorescence spectra with titration of a different concentration of compounds (0–1000 nM) were recorded by fluorescence spectrophotometer F-7000 (Hitachi, Tokyo, Japan), with excitation wavelength 295 nm and emission wavelength in the range of 300–400 nm. The calculation of dissociation constant (KD) between the 7,8-DHF or ZN/VB compound and TRKB was described in a previous report.

[2] = Cell number / cell survival in induced ΔK280 TauRD-DsRed SH-SY5Y cells (high-content); type: cell-based, human; details: human; induced SH-SY5Y cells expressing ΔK280 TauRD-DsRed for 6 days, 2–10 μM tested; read-out: IC50 cytotoxicity based on cell number
Experimental: ΔK280 TauRD-DsRed SH-SY5Y cells were plated in the presence of 10 μM retinoid acid (RA; Sigma-Aldrich) to promote neuronal differentiation. The next day, cells were added with congo red or ZN/VB compounds (2–10 μM) for 8 h pretreatment, followed by inducing ΔK280 TauRD-DsRed expression with doxycycline (2 μg/mL). On day 8, cell nuclei were stained with Hoechst 33342 (0.1 μg/mL; Thermo Scientific), and cell images acquired using ImageXpress Micro Confocal High-Content Imaging System (Molecular Devices, San Jose, CA, USA) with DAPI (4′,6-diamidino-2-phenylindole, for nuclei) and TRITC (tetramethylrhodamine, for DsRed) fluorescence filter sets. To detect ROS changes, 10 μM compound-treated cells were stained with Hoechst 33342 and 2′,7′-dichlorodihydrofluorescein diacetate (H2DCFDA, 10 μM) fluorescein (Invitrogen, Carlsbad, CA, USA), and cell images captured using DAPI and FITC (fluorescein isothiocyanate, for DCF) filters. For assessing differential neurite outgrowth, 10 μM compound-treated cells were fixed (paraformaldehyde, 4%), permeabilized (Triton X-100, 0.3%), and stained with class III β-tubulin (TUBB3, 1:1000) primary antibody (#802001, BioLegend, San Diego, CA, USA), followed by donkey anti-rabbit Alexa Fluor® 555 secondary antibody (1:1000; #A-31572, Invitrogen) and DAPI (0.1 μg/mL; Sigma-Aldrich) stains. The nuclei and neurite images were acquired with DAPI and TRITC fluorescence filters, respectively. All analyses of images were performed using MetaXpress software (Molecular Device).

MTT cell viability assay = type: cell-based; details: human
Experimental: Human neuroblastoma SH-SY5Y cells with inducible ΔK280 TauRD-DsRed expression were maintained in DMEM/F-12 supplemented with fetal bovine serum (FBS, 10%) (Thermo Scientific, Waltham, MA, USA), penicillin/streptomycin (100 U/mL), selection antibiotics hygromycin (100 μg/mL) and blasticidin (5 μg/mL) (InvivoGen, San Diego, CA, USA), and 1.5 g/l sodium bicarbonate. Cells were cultured at 37 °C in a 5% CO2 atmosphere. The cell viability of ZN and VB compounds (concentration range: 0.1–100 μM) was evaluated by a 3-(4,5-dimethylthiazol-2-yl)-2,5-diphenyltetrazolium bromide (MTT; Sigma-Aldrich) colorimetric assay. The absorbance at 570 nm was recorded by a Multiskan™ GO Microplate Spectrophotometer (Thermo Scientific).

T1 sequence (Q16620 32-429): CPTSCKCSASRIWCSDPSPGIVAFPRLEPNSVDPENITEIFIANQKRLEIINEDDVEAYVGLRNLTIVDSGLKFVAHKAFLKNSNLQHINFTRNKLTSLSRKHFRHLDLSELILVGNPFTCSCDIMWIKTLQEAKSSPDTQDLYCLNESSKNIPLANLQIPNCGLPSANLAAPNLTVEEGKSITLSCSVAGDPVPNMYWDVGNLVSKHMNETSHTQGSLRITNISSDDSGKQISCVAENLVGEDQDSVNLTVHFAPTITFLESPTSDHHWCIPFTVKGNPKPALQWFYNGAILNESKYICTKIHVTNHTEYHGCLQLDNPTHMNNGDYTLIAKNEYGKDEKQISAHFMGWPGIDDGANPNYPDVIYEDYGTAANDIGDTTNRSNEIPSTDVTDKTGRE

O=C(/C=C/c1ccccc1O)c1c(O)c2ccccc2oc1=O [ZN-015, (E)-4-hydroxy-3-(3-(2-hydroxyphenyl)acryloyl)-2H-chromen-2-one] showed a Kd [1] of 0.0122 ± 0.0094 µM, an IC50 at 6 days [2] of 16 µM and an IC50 at 24 h (MTT cell viability assay) of 77 µM.
